One assay relates to IL-17. Put plainly: Inhibition of IL-17 release from mouse splenocytes (PMA + ionomycin, ELISA). As to conditions: Splenocyte, 10 μM, 3 h. Type of assay: cell-based, Balb/c mice. On the procedure: 2. Inhibition of IL-17 Release from Mouse Splenocytes:
Splenocytes isolated from Balb/c mice were re-suspended in RPMI medium at a concentration of 1×10^6 cells/ml and seeded in a 6 well plate. Cells were incubated with desired concentrations of the inhibitor for 15 min prior to induction with 10 ng/ml PMA+1 μM ionomycin. After a 3 h incubation, supernatant was collected and analyzed for IL-17 concentration using an ELISA kit. Data were analyzed using GraphPad Prism. IC50 values for each compound were determined based on the percent inhibition due to the test compound compared to the control.

A further assay addresses T1, h-DHODH (Homo sapiens, UniProt Q02127).
T1 construct: endogenous in cells; host or cells: U937 cells (membrane fraction, solubilised with 1% octyl glucoside)
Description: Dihydro-orotate dehydrogenase inhibition assay (U937 membrane preparations, DCIP reduction). Type of assay: biochemical. As to conditions: U937 membrane preparation; for inhibition at 0.3 µM: compound tested at 0.3 uM (footnote *). The method, then: Dihydro-Orotate Dehydrogenase Inhibition Assay
Dihydro-orotate dehydrogenase (DHODH) catalyzes the […] of dihydro-orotate to orotate during de novo biosynthesis of pyrimidines Inhibition of DHODH activity in U937 membrane preparations was measured by the dihydro-orotate driven reduction of 2,6 dichloroindophenol (DCIP).
U937 cells were homogenized in 20 mM Tris/HCl (pH 7.2) containing 1 mM EDTA. […] Following washes, the pellet was dissolved in 20 mM Tris/HCl containing 150 mM NaCl, 1 mM EDTA, and 1% octyl glucoside on ice for 1 h. Particulate matter was removed by centrifugation at 100000×g for 1 h at 4° C. […] The mixture was incubated at 37° C. for 4 h before measuring the change in absorbance on a plate reader (BMG Labtech., Germany) at 600 nm. Data were analyzed using GraphPad Prism. IC50 for each compound was determined based on the percent inhibition of dihydro-orotate […].

T1 sequence (Q02127 whole entry): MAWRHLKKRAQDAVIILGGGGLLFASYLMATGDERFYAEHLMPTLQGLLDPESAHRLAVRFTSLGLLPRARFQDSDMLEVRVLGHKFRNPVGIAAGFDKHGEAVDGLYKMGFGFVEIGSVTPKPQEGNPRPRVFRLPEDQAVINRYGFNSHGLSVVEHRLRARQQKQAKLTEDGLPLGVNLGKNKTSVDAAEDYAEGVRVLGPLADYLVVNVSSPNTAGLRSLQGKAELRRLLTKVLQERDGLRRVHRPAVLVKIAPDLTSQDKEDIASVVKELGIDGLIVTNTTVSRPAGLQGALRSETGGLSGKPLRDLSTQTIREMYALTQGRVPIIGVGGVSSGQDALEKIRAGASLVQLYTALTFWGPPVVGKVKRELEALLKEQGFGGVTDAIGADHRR

Take `CCOc1cccc(-c2cc(F)c(NC(=O)c3c(Cl)ccc(Cl)c3C(=O)O)c(F)c2)c1` [Example 28, 3,6-dichloro-2-(3′-ethoxy-3,5-difluorobiphenyl-4-ylcarbamoyl)benzoic acid]: in the assay on IL-17, the inhibition (usually the change of the read-out against control, counted positive when it falls) at 10 µM is 18.8%. The same compound had an inhibition at 1 µM at h-DHODH of 12.9%.

Take `O=C(O)c1ccccc1C(=O)Nc1c(F)cc(-c2ccc3c(c2)OCCO3)cc1Cl` [Example 67, 2-[2-chloro-4-(2,3-dihydrobenzo[b][1,4]dioxin-6-yl)-6-fluorophenylcarbamoyl]benzoic acid]: the inhibition at 10 µM with IL-17 came to 3.56%. This compound also registered an inhibition at 1 µM against h-DHODH of 54.1%.

On to `COc1ccc(F)c(-c2cc(F)c(NC(=O)c3ccccc3C(=O)O)c(Cl)c2)c1` [Example 61, 2-(3-chloro-2′,5-difluoro-5′-methoxybiphenyl-4-ylcarbamoyl)benzoic acid], for which the inhibition at 10 µM with IL-17 was 4.23%. The same compound showed an inhibition at 1 µM on h-DHODH of 73.7%.

In the case of `COc1cc(Cl)cc(-c2cc(F)c(NC(=O)c3ccccc3C(=O)O)c(F)c2)c1` [Example 55, 2-(3′-Chloro-3,5-difluoro-5′-methoxybiphenyl-4-ylcarbamoyl)benzoic acid], the inhibition at 10 µM in the assay with IL-17 amounted to 5.66%. At h-DHODH, this compound gave an inhibition at 1 µM of 44.5%.

As for `CCOc1cccc(-c2cc(F)c(NC(=O)c3ccccc3C(=O)O)c(Cl)c2)c1F` [Example 66, 2-(3-chloro-3′-ethoxy-2′,5-difluorobiphenyl-4-ylcarbamoyl)benzoic acid], at h-DHODH, testing at 1 µM gave an inhibition of 87.5% and the IC50 (as a rule, the point on the concentration scale where inhibition reaches its midpoint) worked out at 84.4 nM.

For `O=C(O)c1ccccc1C(=O)Nc1ccc(-c2ccccc2)cc1` [Example 85, 2-(biphenyl-4-ylcarbamoyl)benzoic acid], the inhibition at 10 µM in the assay on IL-17 came to 13%. At 0.3 µM the inhibition at h-DHODH was 15.1%.

On to `CCc1cccc(-c2cc(F)c(NC(=O)c3ccccc3C(=O)O)c(Cl)c2)c1` [Example 65, 2-(3-chloro-3′-ethyl-5-fluorobiphenyl-4-ylcarbamoyl)benzoic acid], for which, in the assay with IL-17, the inhibition at 10 µM came to 11%. At h-DHODH, this compound registered an inhibition at 1 µM of 71.2% and an IC50 of 146 nM.

`CC[S+]([O-])c1cccc(-c2cc(F)c(NC(=O)c3ccccc3C(=O)O)c(F)c2)c1` (centres unmarked) [Example 72, 2-[3′-(ethylsulfinyl)-3,5-difluorobiphenyl-4-ylcarbamoyl]benzoic acid]: the inhibition at 10 µM in the assay on IL-17 turned out to be 7.36%. Further, at 1 µM the inhibition on h-DHODH was 16.9%.

As to `O=C(O)c1ccccc1C(=O)Nc1c(F)cc(-c2cccc(OC(F)F)c2)cc1F` [Example 43, 2-[3′-(Difluoromethoxy)-3,5-difluorobiphenyl-4-ylcarbamoyl]benzoic acid], in the assay on IL-17, the inhibition at 10 µM was found to be 6.82%. At h-DHODH, this compound registered an inhibition at 1 µM of 58.2% and an IC50 of 181 nM.

In the case of `Cc1nn(C)c2ccc(-c3cc(F)c(NC(=O)c4ccccc4C(=O)O)c(F)c3)cc12` [Example 54, 2-[4-(1,3-Dimethyl-1H-indazol-5-yl)-2,6-difluorophenylcarbamoyl]benzoic acid], the inhibition at 10 µM in the assay with IL-17 came out at 22.6%.

Take `COc1cc(-c2cc(F)c(NC(=O)c3ccccc3C(=O)O)c(F)c2)ccc1F` [Example 62, 2-(3,4′,5-trifluoro-3′-methoxybiphenyl-4-ylcarbamoyl)benzoic acid]: the inhibition at 10 µM with IL-17 worked out at 8.34%. At h-DHODH, this compound gave an inhibition at 1 µM of 12.4%.

With `Cc1n[nH]c2ccc(-c3cc(F)c(NC(=O)c4ccccc4C(=O)O)c(F)c3)cc12` [Example 64, 2-[2,6-difluoro-4-(3-methyl-1H-indazol-5-yl)phenylcarbamoyl]benzoic acid], in the assay with IL-17, the inhibition at 10 µM was found to be 15.3%. At h-DHODH, this compound came in with an inhibition at 1 µM of 23.4%.

Turning to `O=C(O)c1ccccc1C(=O)Nc1c(F)cc(-c2cccc(OC(F)F)c2)cc1Cl` [Example 44, 2-[3-Chloro-3′-(difluoromethoxy)-5-fluorobiphenyl-4-ylcarbamoyl]benzoic acid], in the assay with IL-17, the inhibition at 10 µM came to 35%. At h-DHODH, this compound showed an inhibition at 1 µM of 71.1% and an IC50 of 90.6 nM.

As to `O=C(O)c1ccccc1C(=O)Nc1c(F)cc(-c2ccc3c(c2)OCO3)cc1F` [Example 47, 2-[4-(Benzo[d][1,3]dioxol-5-yl)-2,6-difluorophenylcarbamoyl]benzoic acid], the inhibition at 10 µM with IL-17 amounted to 6.22%. Besides, the inhibition at 1 µM against h-DHODH was found to be 55.2%.

Turning to `O=C(O)c1ccccc1C(=O)Nc1c(F)cc(OCc2ccccc2)cc1F` [Example 40, 2-[4-(Benzyloxy)-2,6-difluorophenylcarbamoyl]benzoic acid], in the assay on IL-17, the inhibition at 10 µM was 8.79%.

As to `CCOc1cccc(-c2cc(F)c(NC(=O)c3ccccc3CO)c(Cl)c2)c1` [Example 36, N-(3-Chloro-3′-ethoxy-5-fluorobiphenyl-4-yl)-2-(hydroxymethyl)benzamide], the inhibition at 10 µM in the assay on IL-17 amounted to 45.5%.

For the compound `COc1cc(F)cc(-c2cc(F)c(NC(=O)c3ccccc3C(=O)O)c(F)c2)c1` [Example 46, 2-(3,3′,5-Trifluoro-5′-methoxybiphenyl-4-ylcarbamoyl)benzoic acid], the inhibition at 10 µM with IL-17 stood at 3.69%. 1 µM produced 56% inhibition on h-DHODH.

`COc1ccc(Cl)c(-c2cc(F)c(NC(=O)c3ccccc3C(=O)O)c(Cl)c2)c1` [Example 57, 2-(2′,3-Dichloro-5-fluoro-5′-methoxybiphenyl-4-ylcarbamoyl)benzoic acid] registered an inhibition at 1 µM at h-DHODH of 68.1%.

For `COc1cc(-c2cc(F)c(NC(=O)c3ccccc3C(=O)O)c(F)c2)ccc1Cl` [Example 59, 2-(4′-Chloro-3,5-difluoro-3′-methoxybiphenyl-4-ylcarbamoyl)benzoic acid], the inhibition at 10 µM with IL-17 was 7.36%. The inhibition at 1 µM at h-DHODH was determined as 34.5%.

`CCOc1cccc(-c2cc(F)c(NC(=O)c3ccccc3CO)c(F)c2)c1` [Example 37, N-(3′-Ethoxy-3,5-difluorobiphenyl-4-yl)-2-(hydroxymethyl)benzamide]: in the assay with IL-17, the inhibition at 10 µM came to 17.8%. For the same compound, at 1 µM the inhibition at h-DHODH was 14.8%.

On to `COc1cccc(-c2ccc(NC(=O)c3ccccc3C(=O)O)c(F)c2)c1` [Example 69, 2-(3-fluoro-3′-methoxybiphenyl-4-ylcarbamoyl)benzoic acid], for which, in the assay with IL-17, the inhibition at 10 µM was 5.54%. The compound also returned an inhibition at 1 µM at h-DHODH of 22%.

As to `O=C(O)c1ccccc1C(=O)Nc1c(F)cc(-c2cccc(OCC(F)(F)F)c2)cc1F` [Example 83, 2-[3,5-difluoro-3′-(2,2,2-trifluoroethoxy)biphenyl-4-ylcarbamoyl]benzoic acid], the inhibition at 10 µM with IL-17 worked out at 8.79%. At h-DHODH, this compound showed an inhibition at 0.3 µM of 43.6%.

`CCOc1cccc(-c2cc(F)c(NC(=O)c3cccc(F)c3C(=O)O)c(Cl)c2)c1` [Example 38, 2-(3-Chloro-3′-ethoxy-5-fluorobiphenyl-4-ylcarbamoyl)-6-fluorobenzoic acid]: the inhibition at 10 µM in the assay with IL-17 came to 9.35%. In addition, the inhibition at 1 µM at h-DHODH was found to be 27.8%.

`COc1ccc(-c2cc(F)c(NC(=O)c3ccccc3C(=O)O)c(F)c2)cc1OC` [Example 49, 2-(3,5-Difluoro-3′,4′-dimethoxybiphenyl-4-ylcarbamoyl)benzoic acid]: in the assay with IL-17, the inhibition at 10 µM was determined as 3.95%.

As for `COc1cc(-c2cc(F)c(NC(=O)c3ccccc3C(=O)O)c(Cl)c2)ccc1Cl` [Example 60, 2-(3,4′-Dichloro-5-fluoro-3′-methoxybiphenyl-4-ylcarbamoyl)benzoic acid], in the assay with IL-17, the inhibition at 10 µM was determined as 20.3%. This compound had an inhibition at 1 µM against h-DHODH of 41.8%.

On to `COc1cc(Cl)cc(-c2cc(F)c(NC(=O)c3ccccc3C(=O)O)c(Cl)c2)c1` [Example 51, 2-(3,3′-Dichloro-5-fluoro-5′-methoxybiphenyl-4-ylcarbamoyl)benzoic acid], for which, in the assay on IL-17, the inhibition at 10 µM worked out at 10.8%. This compound also registered an inhibition at 1 µM against h-DHODH of 26.6%.

On to `O=C(O)c1ccccc1C(=O)Nc1c(F)cc(-c2ccc3c(c2)CCO3)cc1F` [Example 52, 2-[4-(2,3-Dihydrobenzofuran-5-yl)-2,6-difluorophenylcarbamoyl]benzoic acid], for which, in the assay with IL-17, the inhibition at 10 µM was 13.8%. Besides, at 1 µM the inhibition on h-DHODH was 12.8%.

With `O=C(O)c1ccccc1C(=O)Nc1c(F)cc(-c2ccc3c(c2)OCO3)cc1Cl` [Example 48, 2-[4-(Benzo[d][1,3]dioxol-5-yl)-2-chloro-6-fluorophenylcarbamoyl]benzoic acid], in the assay on IL-17, the inhibition at 10 µM was 22%. On h-DHODH, this compound registered an inhibition at 1 µM of 47.1%.

Turning to `COc1ccc(F)c(-c2cc(F)c(NC(=O)c3ccccc3C(=O)O)c(F)c2)c1` [Example 58, 2-(2′,3,5-Trifluoro-5′-methoxybiphenyl-4-ylcarbamoyl)benzoic acid], the inhibition at 10 µM with IL-17 is 5.46%. Also, on h-DHODH, 1 µM produced 76.1% inhibition.

`O=C(O)c1ccccc1C(=O)Nc1c(F)cc(-c2ccc3c(c2)CCO3)cc1Cl` [Example 53, 2-[2-Chloro-4-(2,3-dihydrobenzofuran-5-yl)-6-fluorophenylcarbamoyl]benzoic acid]: the inhibition at 10 µM in the assay with IL-17 turned out to be 8.28%.

As to `O=C(O)c1ccccc1C(=O)Nc1c(F)cc(-c2cccc(OCC(F)(F)F)c2)cc1Cl` [Example 68, 2-[3-chloro-5-fluoro-3′-(2,2,2-trifluoroethoxy)biphenyl-4-ylcarbamoyl]benzoic acid], at h-DHODH, the inhibition at 1 µM was 86.5% and the IC50 came to 62.2 nM.

(Values after patent US8686048B2, “Immunomodulator and anti-inflammatory compounds” (Rhizen Pharmaceuticals SA, priority 2010, dated 2014).)
